Legend:
M0 macrophages = test: Western blot (arginase-1) of M0 macrophages with direct addition of genipin to culture medium; assay type: cell-based, rat; settings: for arginase-1 expression in genipin treated M0 (M0-GE): 12.5 μg/ml genipin added directly to culture medium, versus cytokine induced M2
Source text: 7b. […] A second set of experiments included the following groups: 1) Tissue culture plate with M0-polarization medium, 2) Tissue culture plate with M1-polarization medium, 3) Tissue culture plate with M2-polarization medium, 4) Tissue culture plate with M0-polarization medium with direct addition of genipin, 5) M0 subtype cells seeded on uncrosslinked collagen threads, 6) M0 subtype cells seeded on genipin crosslinked collagen threads. In this design, Groups 1-3 constitute the positive controls. […] Comparison of group 5 with group 6 determines how genipin crosslinking of collagen affect the polarization status of M0 subtype. For group 4, genipin (Wako Pure Chemical Industries, catalog #078-03021, Richmond, Va.) in 0.1% dimethyl sulfoxide (DMSO, Sigma-Aldrich, USA) (12.5 μg/ml, genipin/DMSO) was directly added to the culture medium. […] Total cell lysate was prepared using RIPA lysis buffer (#50195822), phenylmethylsulfonylfluoride (PMSF) (#NC0417414) and protease/phosphatase inhibitor (#50193743) purchased from Cell Signaling Technology. The protein concentration in the cell lysate was estimated using DC protein assay (BioRad) and 25 μg protein was resolved using 4-20% Mini-PROTEAN gels (#4561094, BioRad) and transferred to a nitrocellulose membrane (#1620213, BioRad). The membrane was blocked in 5% non-fat dry milk/1% Tween 20 for 2 hr at room temperature. They were incubated with primary antibodies anti-Arg1 for M2 (sc-271430), anti-iNOS for M1 (sc-7271), pSTAT6 (#9361S), PPAR-gamma (sc-7273) and anti-GAPDH (sc-365062) as the housekeeping protein overnight at 4° C. Following day, the blots were washed in TBST and incubated with anti-mouse secondary antibody (sc-516102) conjugated with horseradish peroxidase detected by ECL-chemiluminescence, then underwent autoradiography using BioBlue-Lite™ film (Alkali Scientific, FL). Quantitative analysis of the protein bands was performed using the Image J.

pSTAT6 and PPAR-γ = test: Western blot of signaling pathways in genipin induced M2 polarization; assay type: cell-based, rat; settings: genipin treated M0 (M0-GE)
Method: 7c. Investigation of signaling pathways involved in M2 polarization by genipin: A third set of experiments included the following groups: 1) Tissue culture plate with M2-polarization medium, 2) Tissue culture plate with M0-polarization medium with direct addition of genipin, 3) Tissue culture plate with M0-polarization medium. In this design, Groups 1 and 3 represent the positive and negative controls. Total cell lysate was prepared using RIPA lysis buffer (#50195822), phenylmethylsulfonylfluoride (PMSF) (#NC0417414) and protease/phosphatase inhibitor (#50193743) purchased from Cell Signaling Technology. The protein concentration in the cell lysate was estimated using DC protein assay (BioRad) and 25 μg protein was resolved using 4-20% Mini-PROTEAN gels (#4561094, BioRad) and transferred to a nitrocellulose membrane (#1620213, BioRad). The membrane was blocked in 5% non-fat dry milk/1% Tween 20 for 2 hr at room temperature. […] Following day, the blots were washed in TBST and incubated with anti-mouse secondary antibody (sc-516102) conjugated with horseradish peroxidase detected by ECL-chemiluminescence, then underwent autoradiography using BioBlue-Lite™ film (Alkali Scientific, FL). Quantitative analysis of the protein bands was performed using the Image J.

[1] = 12.5 μg/ml; cited from earlier work
[2] = system: LPS-stimulated RAW 264.7 murine macrophages cell line; settings: cited from earlier work
human endothelial cells = settings: cited from earlier work
[3] = system: LPS-stimulated microglia cells derived from rat brain; settings: cited from earlier work

COC(=O)C1=CO[C@@H](O)[C@@H]2C(CO)=CC[C@H]12 [genipin]
arginase-1 expression in genipin treated M0 (M0-GE) (M0 macrophages): higher than for the M2 subtype induced with standard cytokines
arginase-1 expression in genipin treated M0 (M0-GE) (M0 macrophages; listed as soluble genipin): moderately greater than a potent cytokine
increase in Arg1 expression, soluble genipin compared to genipin presented via crosslinked collagen (M0 macrophages; M0GE vs. M0GES): approximately 3 fold
pSTAT6 expression (pSTAT6 and PPAR-γ): significantly higher compared to M2 polarization induced by IL-4
toxicity of genipin concentration [1]: subtoxic
TNF-α and IL-6 (pro-inflammatory markers) [2]: suppress
TNF-α-induced VCAM-1 expression (human endothelial cells): suppress
IL-10 and TNF-α production [3]: leads to IL-10 and TNF-α production
